The results in this text go back to patent publication US8377934B2, “Use of stilbene derivatives for treatment and prevention of aquatic mold infections” (State of Israel, Ministry of Agriculture & Rural …, priority 2006, dated 2013).

Values after ≈ are worked out from the molar mass of the structure shown.

One assay relates to S. parasitica. The experiment in a line: In vitro susceptibility of S. parasitica in Table 4. Format: cell-based, Saprolegnia parasitica. On the procedure:
The in vitro susceptibility of Saprolegnia parasitica T-1 and S. parasitica CBS 540.67 to various compounds was determined by the agar-dilution and broth macrodilution methods.
(§1) Two methods were used, each suitable for a different phase of the asexual life cycle of Saprolegnia spp.: i) the broth macrodilution method, for determination of susceptibility of zoospores and cysts; and ii) the agar-dilution method for determination of susceptibility of filamentous hyphae. Each compound was tested three times in each method. Malachite Green was used as positive control.
This method is a modification of the method used for molds according to EUCAST 7.1 (European Committee on Antibiotic Susceptibility Testing) and CLSI/NCCLS M27-A2 (Clinical Laboratory Standards Institute/National Committee for Clinical Laboratory Standards). For inoculum preparation, S. parasitica isolates were cultured on GP-PS for 7 days with sterile clover seeds at 18° C. Clover seeds (˜20) covered with mycelium were removed and added to 40 ml of RPMI-1640 broth medium (Sigma; prepared according to NCCLS instructions) and incubated at 18° C. for 4-7 days. Cysts and zoospores free from hyphae were collected, and an inoculum of ˜10^3 CFU/ml as measured by hemacytometer counting, was prepared in RPMI. Fluorescent Brightener 28 stock solution was prepared by adding 40% KOH gradually to a 10 mg/ml solution in water, until it was clear, then it was filtered twice through a 0.2 μm cellulose acetate nonpyrogenic sterile filter (Schleicher & Schuell, Dassel, Germany).
Twofold serial dilutions of the resulting stock solutions were set in RPMI-1640 medium in a volume of 0.1 ml. Final drug concentrations in the test tubes ranged from 1×10^4 to 0.01 mg/L. Inoculum of 0.9 ml was added to each of a sterile tube containing 0.1 ml of the serially diluted drug. Two tubes containing drug-free medium and two tubes containing drug-free inoculum were used as controls. The inoculated tubes were incubated at room temperature (15-20° C.) for 24 h. The growth in each tube was then evaluated visually.
This method is a modification of the method presented by Bailey (Bailey, T. A. (1983) Prog. Fish Cult. 45:24-27), and was used for the susceptibility testing of Saprolegnia hyphae. Twofold serial dilutions were prepared in double distillated sterile water with final drug concentrations ranging from 10,000 to 0.01 mg/L in a final volume of 1.0 ml. Melted (56° C.) RPMI-1640 agar medium (Sigma) was prepared according to NCCLS instructions, and then added to each tube containing drug or water control. The mixture was vortexed, and poured into small plates. After agar solidification a small measured piece, taken from a 7-10 day old culture of S. parasitica T-1 on GP-PS medium was placed upside down on each plate. The plates were incubated at room temperature (15-20° C.) for 24 h.

A further assay relates to S. parasitica T-1. In words: Agar-dilution susceptibility testing (filamentous hyphae). Format: cell-based, Saprolegnia parasitica. Conditions: 24 h. On the procedure:
as §1
Twofold serial dilutions were prepared in double distillated sterile water with final drug concentrations ranging from 10,000 to 0.01 mg/L in a final volume of 1.0 ml. […] The mixture was vortexed, and poured into small plates. After agar solidification a small measured piece, taken from a 7-10 day old culture of S. parasitica T-1 on GP-PS medium was placed upside down on each plate. The plates were incubated at room temperature (15-20° C.) for 24 h.

Another assay concerns S. parasitica CBS 540.67. Described as above. The assay is classed as cell-based, Saprolegnia parasitica.
The subject of assay [1] is Saprolegnia parasitica T-1. The experiment in a line: Tilapia-saprolegniosis early infection model. Format: in vivo, Hybrid tilapia (Oreochromis niloticus X Oreochromis aureus). On the procedure: Hybrid tilapia (Oreochromis niloticus X Oreochromis aureus), with an average weight of 20 g were treated against ectoparasites using 25 μg/ml of formaldehyde (37% v/v) two weeks prior to the experiment, and were maintained at a constant temperature of 21° C. in a 100 liter polyethylene tank. The water tank was cooled from an initial temperature of 21° C. to 14° C. over a period of 10 days. The water was kept at a constant temperature of 14° C. and the fish were acclimated for 4 days. Physical stress of abrasion was then applied by agitating 40 fish for 10 seconds within a plastic net (30×20 cm). Following this, a sterile stainless steel tea infuser containing 60 clover-seeds covered with hyphae of Saprolegnia parasitica T-1 (7 day old culture on GP-PS medium at 18° C.) was added to each tank, in which the fish density was 20 fish per 100 liters. This treatment lasted 48 h and allowed the dispersion of zoospores that were produced. The density of the zoospores in the water was determined according to the method described below, and was estimated as 5×10^2-2×10^3 zoospores per liter. The fish were then transferred to different tanks, and treated with Blankophor® BA (200, 100, 50 or 25 mg/L) or Malachite Green (0.25 mg/L) for 8 h at 13-14° C., with 10 fish per 100 L water. The treatments were applied on 2nd, 4th and 6th day following initiation of the experiment. The fish were monitored for 14 days for the presence of any lesion covered with hyphae, indicative of Saprolegnia infection. Skin biopsies of diseased and moribund fish were checked microscopically (10× and 40× magnification). Morbidity and mortality was monitored daily. Moribund and or dead fish were removed from all tanks during the experimental period.
The determination of zoospore density in the water was performed according to Willoughby, L. G. (1994) Fungi and fish diseases, Pisces Press, Stirling, Scotland p. 57.
In brief, a 1 liter sample of water from the 100 liter tank was divided into 1 and 10 ml aliquots in sterile Petri dishes. Each sample was diluted with water to give a final volume of 20 ml and then one sterile clover seed was added in order to attract and keep the zoospores. All the water samples were incubated at room temperature for 72 h allowing spore germination. The density of the zoospores was determined according to the number of seeds covered with visible mycelium.
Treatments were carried out on the 2nd, 4th and 6th days after the initiation of the infection, and each treatment was for a period of 8 h. Fish treated with 0.25 mg/L Malachite Green served as a positive treatment control. Fish were monitored for 14 days. […] All fish treated with Blankophor BA survived for at least 10 days following initiation of the infection, in contrast to untreated fish which progressively died from the 3rd day.
Due to the high efficacy of the treatment with 100 mg/L Blankophor® BA, additional experiments were performed using lower concentrations of Blankophor® BA (50 and 25 mg/L). As in the previous experiments, infected fish were treated in tanks containing different concentrations of the compound on the 2nd, 4th and 6th days after the initiation of the infection. In addition, two additional treatment regimens were added i.e. 50 mg/L (administered on the 2nd and 9th days after initiation of the infection) and 100 mg/L (administered on the 2nd day after initiation of the infection).

One may read the MIC as the lowest concentration found to suppress growth. `C=O` [Formaldehyde]: the MIC with S. parasitica (Saprolegnia parasitica, read-out: Activity in vitro (MIC), value) was found to be 100 µg/mL (≈ 3.33 mM); with S. parasitica T-1 (Saprolegnia parasitica, read-out: MIC, Agar-dilution), 100 µg/mL (≈ 3.33 mM); in the assay on S. parasitica CBS 540.67 (Saprolegnia parasitica, CBS540, 24 h, read-out: MIC, Agar-dilution), 100 µg/mL (≈ 3.33 mM). Besides, the “fish died within 14 days” value in assay [1] (100 mg/L on 2nd, 4th and 6th days) was 70%.
With `O=S(=O)([O-])c1cc(Nc2nc(Nc3ccccc3)nc(N(CCO)CCO)n2)ccc1C=Cc1ccc(Nc2nc(Nc3ccccc3)nc(N(CCO)CCO)n2)cc1S(=O)(=O)[O-].[K+].[Na+]` [Blankophor® BA], in the assay with S. parasitica (Table 4 summary), the “Activity in vitro (MIC), grade” value is on record as “Moderate” and the “Activity in vitro (MIC), value” is reported as “(100 mg/L)”. Also, the “MIC, Agar-dilution” value in the assay with S. parasitica T-1 (S. parasitica T-1, 15-20° C., geometric mean of three tests) turned out to be 200 µg/mL. Also, in the assay with S. parasitica CBS 540.67 (S. parasitica CBS 540.67, 24 h, 15-20° C., geometric mean of three tests), the “MIC, Agar-dilution” value was 200 µg/mL. In addition, the “preventing and treating saprolegniosis in tilapia fish” value in assay [1] (25 mg/liter for 8 hours) is recorded as “effective”. Moreover, in assay [1] (50 and 100 mg/L), the “clinical observation, lesions” value is listed as “free of lesions” and the “culture for Saprolegnia” value is “negative upon culture”. The “survival following initiation of the infection” value in assay [1] (100 and 200 mg/L, 8 h on 2nd, 4th and 6th day, all treated fish) is recorded as “at least 10 days”. For the same compound, the “therapeutic efficacy (survival of fish)” value in assay [1] (100 and 200 mg/L, 8 h on 2nd, 4th and 6th day, monitored 14 days) is on record as “as effective as Malachite Green”. Moreover, in assay [1] (Table 4 summary), the Therapeutic efficacy entry is listed as “Very Effective”. The “efficacy in preventing and treating early stage saprolegniosis” value in assay [1] (even at a concentration as low as 25 mg/L, also 50 mg/L (days 2, 9) and 100 mg/L (day 2)) was “highly effective”.
